Laboratory results published in US9499502B2, “5-substituted iminothiazines and their mono- and dioxides as BACE inhibitors, compositions, and their use” (Merck Sharp & Dohme Corp., priority 2011, dated 2016).
Where two headings read alike, the source gives them in different places. Values belong to the compound of their own block, whether it stands above or below them.

Legend:
[1] = biological target: purified human autoBACE-2 (Homo sapiens (Human), UniProt Q9Y5Z0); assay: BACE-2 Assay (BACE-HTRF assay); format: biochemical; details: for inhibition at 10 µM: read-out: inhibition of BACE2 at 10 μM
Method: Inhibitor IC50s at purified human autoBACE-2 are determined in a time-resolved endpoint proteolysis assay that measures hydrolysis of the QSY7-[…]-Eu-amide FRET peptide substrate (BACE-HTRF assay). […] DMSO is present at 5% final concentration in the assay. Following laser excitation of sample wells at 320 nm, the fluorescence signal at 620 nm is collected for 400 ms following a 50 μs delay on a RUBYstar HTRF plate reader (BMG Labtechnologies). Raw RFU data is normalized to maximum (1.0 nM BACE/DMSO) and minimum (no enzyme/DMSO) RFU values. […] The Ki values are calculated from the IC50 using the Cheng-Prusoff equation.

[2] = biological target: soluble human BACE1 catalytic domain (Homo sapiens (Human), UniProt P56817); assay: BACE1 HTRF FRET Assay; details: for inhibition at 10 µM: read-out: BACE1 inhibition, % Inh. at 10 μM, at 10 μM
[3] = Ki calculated from IC50 using the Cheng-Prusoff equation, read-out: BACE2 Ki
[4] = read-out: BACE1 Ki, Ki calculated from IC50 using the Cheng-Prusoff equation

purified human autoBACE-2, sequence (Q9Y5Z0 63-473): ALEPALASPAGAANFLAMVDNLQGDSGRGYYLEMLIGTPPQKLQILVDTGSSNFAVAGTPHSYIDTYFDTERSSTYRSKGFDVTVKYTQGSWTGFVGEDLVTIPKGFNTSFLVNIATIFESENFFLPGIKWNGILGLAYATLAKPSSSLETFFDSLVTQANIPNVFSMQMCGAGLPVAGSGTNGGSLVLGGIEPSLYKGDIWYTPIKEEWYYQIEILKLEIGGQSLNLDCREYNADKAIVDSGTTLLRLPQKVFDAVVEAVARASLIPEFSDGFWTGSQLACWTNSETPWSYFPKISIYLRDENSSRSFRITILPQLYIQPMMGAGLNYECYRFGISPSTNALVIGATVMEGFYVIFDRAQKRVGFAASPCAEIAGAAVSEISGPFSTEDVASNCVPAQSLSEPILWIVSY
soluble human BACE1 catalytic domain, sequence (P56817 75-416): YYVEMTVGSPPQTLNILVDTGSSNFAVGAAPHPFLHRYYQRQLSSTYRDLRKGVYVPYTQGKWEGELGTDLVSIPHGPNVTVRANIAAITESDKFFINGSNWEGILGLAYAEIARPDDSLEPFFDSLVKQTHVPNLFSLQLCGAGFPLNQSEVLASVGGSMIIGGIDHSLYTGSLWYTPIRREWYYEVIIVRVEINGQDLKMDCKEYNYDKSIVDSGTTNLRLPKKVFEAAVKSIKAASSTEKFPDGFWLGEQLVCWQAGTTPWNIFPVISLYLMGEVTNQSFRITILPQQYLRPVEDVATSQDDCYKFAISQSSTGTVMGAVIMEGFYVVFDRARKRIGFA

Structure (SMILES): Cc1nc2ccc(CC3(C)C(=N)N[C@](C)(c4cc(F)ccc4F)CS3(=O)=O)cc2s1 (mixture of isomers) [32b-a and 32b-b]
inhibition at 10 µM [1]: 1 to 24% | inhibition at 10 µM [2]: 11%

Structure (SMILES): C[C@@]1(C2CC2)C(=N)N[C@](C)(c2cc([N+](=O)[O-])ccc2F)CS1(=O)=O [Entry 30]
inhibition at 10 µM [1]: 29 to 47% | inhibition at 10 µM [2]: 30%

Structure (SMILES): C[C@@]1(C2CCC2)C(=N)N[C@](C)(c2cc(N)ccc2F)CS1(=O)=O [Entry 40]
inhibition at 10 µM [1]: 29 to 47% | inhibition at 10 µM [2]: 20%

Structure (SMILES): C[C@@]1(c2cccc(F)c2)C(=N)N[C@](C)(c2cc(N)ccc2F)CS1(=O)=O [Entry 61]
inhibition at 10 µM [1]: 29 to 47% | inhibition at 10 µM [2]: 27%

Structure (SMILES): C[C@@]1(c2cccc(C(F)(F)F)c2)C(=N)N[C@](C)(c2cc(N)ccc2F)CS1(=O)=O [Entry 69]
inhibition at 10 µM [1]: 29 to 47% | inhibition at 10 µM [2]: 17%

Structure (SMILES): C[C@@]1(c2ccccn2)C(=N)N[C@](C)(c2cc(N)ccc2F)CS1(=O)=O [Entry 77]
inhibition at 10 µM [1]: 29 to 47% | inhibition at 10 µM [2]: 25%

Structure (SMILES): C[C@@]1(c2cccc(F)c2)C(=N)N[C@](C)(c2sc(Br)cc2F)CS1(=O)=O [Entry 88]
inhibition at 10 µM [1]: 29 to 47% | inhibition at 10 µM [2]: 34%

Structure (SMILES): CC1(C)C(=N)N[C@](C)(c2cc(N)ccc2F)CS1(=O)=O [Example 2-2]
Ki [1]: 500 to 10000 nM | Ki ([2]; read-out: BACE1 inhibition, Ki): 6100 nM

Structure (SMILES): CC1(C)C(=N)N[C@](C)(c2cc(N)cc(F)c2F)CS1(=O)=O [Example 2A-5]
Ki [1, 3]: 500 to 10000 nM | inhibition at 10 µM [2]: 51%

Structure (SMILES): CC1(C)C(N)=N[C@](C)(c2cc(Br)ccc2F)CS1(=O)=O [Example 3-3]
Ki [1, 3]: 500 to 10000 nM | inhibition at 10 µM [2]: 56%

Structure (SMILES): CC1(C)C(=N)N[C@](C)(c2sc(Br)cc2Cl)CS1(=O)=O [Example 4-1]
Ki [1, 3]: 500 to 10000 nM | Ki ([2]; read-out: BACE1 inhibition, Ki): 1500 nM

Structure (SMILES): CC[C@]1(C)C(=N)N[C@](C)(c2cc(NC(=O)c3ccc(OC)cn3)ccc2F)CS1(=O)=O [Example 9cm-b]
Ki [1, 3]: 11 to 100 nM

Structure (SMILES): CC[C@]1(C)C(=N)N[C@](C)(c2cc(NC(=O)c3cnc(OC)cn3)ccc2F)CS1(=O)=O [Example 9cn-b]
Ki [1, 3]: 11 to 100 nM

Structure (SMILES): C[C@@]1(c2cc(NC(=O)c3ccc(Cl)cn3)ccc2F)CS(=O)(=O)[C@@](C)(c2cccc(F)c2)C(=N)N1 [Example 9db-b]
Ki [1, 3]: 11 to 100 nM

Structure (SMILES): COc1cnc(C(=O)Nc2ccc(F)c([C@]3(C)CS(=O)(=O)[C@](C)(c4cc(C(F)(F)F)ccn4)C(=N)N3)c2)cn1 [Example 9ee-b]
Ki [1, 3]: 11 to 100 nM

Structure (SMILES): Cc1nc2cc(CC3(C)C(=N)N[C@](C)(c4cc(F)ccc4F)CS3(=O)=O)ccc2s1 (some centres unmarked) [Example 32-b]
BACE1 inhibition, % Inh. at 10 μM ([2]; at 10 μM): 7% Inh at 10 μM

Structure (SMILES): COc1cccc([C@@]2(C)C(=N)N[C@](C)(c3cc(F)ccc3F)CS2(=O)=O)c1 [Example 32e-a]
Ki ([2]; read-out: BACE1 Ki): 1100 nM

Structure (SMILES): COc1cccc([C@@]2(C)C(=N)N[C@](C)(c3ccc(F)cc3F)CS2(=O)=O)c1 [Example 32f-a]
Ki ([2]; read-out: BACE1 Ki): 1210 nM

Structure (SMILES): COc1cccc([C@]2(C)C(=N)N[C@](C)(c3ccc(F)cc3F)CS2(=O)=O)c1 [Example 32f-b]
inhibition at 10 µM [2]: 30%

Structure (SMILES): C[C@@]1(c2cccc(Br)c2)C(=N)N[C@](C)(c2ccc(F)cc2F)CS1(=O)=O [Example 32g-b]
Ki ([2]; read-out: BACE1 Ki): 8830 nM

Structure (SMILES): C[C@@]1(c2cccc(C(F)(F)F)c2)C(=N)N[C@](C)(c2ccc(F)cc2F)CS1(=O)=O [Example 32h-b]
Ki ([2]; read-out: BACE1 Ki): 2120 nM

Structure (SMILES): COc1cccc(C[C@@]2(C)C(=N)N[C@](C)(c3ccc(F)cc3F)CS2(=O)=O)c1 [Example 32i-a]
Ki ([2]; read-out: BACE1 Ki): 3120 nM

Structure (SMILES): COc1cccc(C[C@]2(C)C(=N)N[C@](C)(c3ccc(F)cc3F)CS2(=O)=O)c1 [Example 32i-b]
Ki ([2]; read-out: BACE1 Ki): 3820 nM

Structure (SMILES): C[C@]1(Cc2cccc(Br)c2)C(=N)N[C@](C)(c2ccc(F)cc2F)CS1(=O)=O [Example 32j-a]
Ki ([2]; read-out: BACE1 Ki): 2100 nM

Structure (SMILES): C[C@@]1(c2ccc(F)cc2F)CS(=O)(=O)[C@](C)(Cc2cccc(Br)c2)C(=N)N1 [Example 32j-b]
Ki ([2]; read-out: BACE1 Ki): 1270 nM

Structure (SMILES): C[C@@]1(c2cc(F)ccc2F)CS(=O)(=O)[C@@](C)(c2cccc(O)c2)C(=N)N1 [Example 34c-a]
Ki ([2]; read-out: BACE1 inhibition, Ki): 1000 nM

Structure (SMILES): C[C@@]1(c2cccc(O)c2)C(=N)N[C@](C)(c2cc(F)ccc2F)CS1(=O)=O [Example 34c-b]
inhibition at 10 µM [2]: 48%

Structure (SMILES): C[C@@]1(c2cc(F)ccc2F)CS(=O)(=O)[C@@](C)(c2cccc(OCc3ccccc3)c2)C(=N)N1 [Example 34d-a]
Ki ([2]; read-out: BACE1 inhibition, Ki): 2900 nM

Structure (SMILES): COc1cccc2cc(-c3ccc(F)c([C@]4(C)CS(=O)(=O)C(C)(C)C(=N)N4)c3)[nH]c12 [compound 11]
Ki [1, 3]: < 200 nM

Results, then the compound that gave them:

Ki [1, 3]: 13 nM | Ki [2, 4]: 18.9 nM
Structure (SMILES): COc1ccc(C(=O)Nc2cc(F)c(F)c([C@]3(C)CS(=O)(=O)C(C)(C)C(=N)N3)c2F)nc1 [Example 9ac]

Ki [1, 3]: 41 nM | Ki [2, 4]: 7.9 nM
Structure (SMILES): CC1(C)C(=N)N[C@](C)(c2c(F)c(F)cc(NC(=O)c3ccc(C(F)(F)F)cn3)c2F)CS1(=O)=O [Example 9ad]

Ki [1, 3]: 69 nM | Ki [2, 4]: 45.4 nM
Structure (SMILES): COc1cnc(C(=O)Nc2cc(F)c(F)c([C@]3(C)CS(=O)(=O)C(C)(C)C(=N)N3)c2F)cn1 [Example 9ae]

Ki [1, 3]: 21 nM
Structure (SMILES): CC1(C)C(=N)N[C@](C)(c2nc(NC(=O)c3cnc(C(F)F)cn3)ccc2F)CS1(=O)=O [Example 9cj]

Ki [1, 3]: 16 nM
Structure (SMILES): CC1(C)C(=N)N[C@](C)(c2cc(NC(=O)c3cnc(OCC4CC4)cn3)ccc2F)CS1(=O)=O [Example 9p]

Ki [1, 3]: 21 nM
Structure (SMILES): CC1(C)C(=N)N[C@](C)(c2sc(-c3cccc(-c4nnco4)c3)cc2Cl)CS1(=O)=O [Example 27ae]

Ki ([2]; read-out: BACE1 Ki): 291 nM
Structure (SMILES): CC1(C)C(=N)N[C@](C)(c2sc(-c3ccc(C#N)c(C(F)(F)F)c3)cc2Cl)CS1(=O)=O [Example 27t]

Ki ([2]; read-out: BACE1 Ki): 71.4 nM
Structure (SMILES): CC1(C)C(=N)N[C@](C)(c2sc(-c3cnc(-c4ccc(F)cc4)o3)cc2Cl)CS1(=O)=O [Example 27v]

Ki ([2]; read-out: BACE1 Ki): 1290 nM
Structure (SMILES): COc1cncc(-c2cc(Cl)c([C@]3(C)CS(=O)(=O)C(C)(C)C(=N)N3)s2)n1 [Example 27w]

Ki ([2]; read-out: BACE1 Ki): 1110 nM
Structure (SMILES): CC1(C)C(=N)N[C@](C)(c2sc(-c3coc(-c4ccc(F)cc4)n3)cc2Cl)CS1(=O)=O [Example 27x]

Ki ([2]; read-out: BACE1 Ki): 1720 nM
Structure (SMILES): COc1ncc(-c2cc(Cl)c([C@]3(C)CS(=O)(=O)C(C)(C)C(=N)N3)s2)cn1 [Example 27y]

Ki ([2]; read-out: BACE1 Ki): 400 nM
Structure (SMILES): CC1(C)C(=N)N[C@](C)(c2sc(-c3cccc(C#N)c3F)cc2Cl)CS1(=O)=O [Example 27z]

Ki ([2]; read-out: BACE1 Ki): 804 nM
Structure (SMILES): COc1cccn2cc(-c3cc(Cl)c([C@]4(C)CS(=O)(=O)C(C)(C)C(=N)N4)s3)nc12 [Example 28a]

Ki ([2]; read-out: BACE1 Ki): 2630 nM
Structure (SMILES): CC1(C)C(=N)N[C@](C)(c2sc(-c3cn4ccsc4n3)cc2Cl)CS1(=O)=O [Example 28b]

Ki ([2]; read-out: BACE1 Ki): 108 nM
Structure (SMILES): COc1cccc2nc(-c3cc(Cl)c([C@]4(C)CS(=O)(=O)C(C)(C)C(=N)N4)s3)cn12 [Example 28c]

Ki ([2]; read-out: BACE1 Ki): 3380 nM
Structure (SMILES): CC1(C)C(=N)N[C@](C)(c2nc3ccc(-c4cccnc4)cc3s2)CS1(=O)=O [Example 29a]

Ki ([2]; read-out: BACE1 Ki): 2330 nM
Structure (SMILES): CC1(C)C(=N)N[C@](C)(c2nc3ccc(-c4ccc(F)cc4)cc3s2)CS1(=O)=O [Example 29b]

Ki ([2]; read-out: BACE1 Ki): 2380 nM
Structure (SMILES): CC1(C)C(=N)N[C@](C)(c2nc3ccc(-c4cccc(C#N)c4)cc3s2)CS1(=O)=O [Example 29c]

Ki ([2]; read-out: BACE1 Ki): 2840 nM
Structure (SMILES): COc1cccc(-c2ccc3nc([C@]4(C)CS(=O)(=O)C(C)(C)C(=N)N4)sc3c2)c1 [Example 29d]

inhibition at 10 µM [2]: 41%
Structure (SMILES): CC1(c2nc(C#Cc3ccc(F)cc3)ccc2F)CS(=O)(=O)C(C)(C)C(=N)N1 (centres unmarked) [Example 31a]

Ki ([2]; read-out: BACE1 Ki): 2170 nM
Structure (SMILES): C[C@@]1(c2ccc(F)cc2F)CS(=O)(=O)[C@@](C)(c2cccc(OCc3ccccc3)c2)C(=N)N1 [Example 34a]

Ki ([2]; read-out: BACE1 Ki): 1130 nM
Structure (SMILES): C[C@@]1(c2ccc(F)cc2F)CS(=O)(=O)[C@@](C)(c2cccc(OCC3CC3)c2)C(=N)N1 [Example 34b]
